Assay results from PubChem BioAssay AID806 (SRMLSC, 2007).
The source made the active and inactive calls. No rule for the calls is given here.

Test system: virus-infected cells, CPE inhibition, dose response
Assay: PubChem AID 806
Conditions: for EC90: measured here: EC90 CPE inhibition; for CC50: measured here: cytotoxicity, cell viability IC50

CCCCC(CC)CNC(=O)CCS(=O)(=O)c1cccc2nsnc12 (stereo not drawn)
EC50: > 60 µM (inactive) | EC90: > 60 µM | CC50: > 60 µM

CC(c1ccco1)N(C(=O)COc1ccc(Cl)cc1)c1ccccn1 (stereo not drawn)
EC50: > 60 µM (inactive) | EC90: > 60 µM | CC50: > 60 µM

Cn1c2ccccc2c(=O)c2c(=O)n(C3CCCCC3)c(-c3cccs3)nc21
EC50: 59.3 µM (inactive) | EC90: > 60 µM | CC50: 6.45 µM

Cc1c(NC(=O)CSc2nnc3sc4ccccc4n23)c(=O)n(-c2ccccc2)n1C
EC50: > 60 µM (inactive) | EC90: > 60 µM | CC50: > 60 µM

COc1ccc(OC)c(-n2c(SCC(=O)Nc3cc(C)on3)nnc2-c2c[nH]c3ccccc23)c1
EC50: > 60 µM (inactive) | EC90: > 60 µM | CC50: > 60 µM

CN(C)c1cccc(C(=O)Nc2ccc3nc4n(c(=O)c3c2)CCCCC4)c1
EC50: 17.4 µM | EC90: > 60 µM | CC50: > 60 µM

COCCNC(=O)c1noc2c1CCc1cc(OC)ccc1-2
EC50: > 60 µM (inactive) | EC90: > 60 µM | CC50: > 60 µM

O=C1NCCCc2c1oc1cc(Br)c(O)c(Br)c21
EC50: > 60 µM (inactive) | EC90: > 60 µM | CC50: > 60 µM

CCOC(=O)/C=C1\SCC(=O)N1CC(=O)Nc1ccc2c(c1)CCC2
EC50: > 60 µM (inactive) | EC90: > 60 µM | CC50: > 60 µM

Clc1cccc(Nc2ncnc3c2cnn3-c2ccccc2)c1
EC50: > 60 µM (inactive) | EC90: > 60 µM | CC50: > 60 µM

COc1ccc(Nc2ncnc3c2cnn3-c2ccccc2)cc1OC
EC50: > 60 µM (inactive) | EC90: > 60 µM | CC50: > 60 µM

Cc1nnc(SC(=O)N2c3ccccc3Sc3ccccc32)s1
EC50: > 60 µM (inactive) | EC90: > 60 µM | CC50: > 60 µM

CN(C)CCSc1nnc(-c2ccccc2)o1
EC50: > 60 µM (inactive) | EC90: > 60 µM | CC50: > 60 µM

CC(c1ccco1)N(C(=O)CSc1ccc(Br)cc1)c1ccccn1 (stereo not drawn)
EC50: > 60 µM (inactive) | EC90: > 60 µM | CC50: > 60 µM

O=C(NCc1cccnc1)C1CCCCN1S(=O)(=O)c1ccc(F)cc1 (stereo not drawn)
EC50: > 60 µM (inactive) | EC90: > 60 µM | CC50: > 60 µM

O=C(CSc1nnc2sc3ccccc3n12)N1CCN(c2ccccc2)CC1
EC90: > 60 µM | CC50: > 60 µM

O=C(Cn1cnc2ccccc2c1=O)N(Cc1ccco1)c1ccc(O)cc1
EC50: > 60 µM (inactive) | EC90: > 60 µM | CC50: > 60 µM

Cn1nc([N+](=O)[O-])nc1Sc1nnc(-c2ccccc2)o1
EC50: > 60 µM (inactive) | EC90: > 60 µM | CC50: > 60 µM

CCOC(=O)/C=c1\s/c(=C\c2ccccc2OC)c(=O)n1CC(=O)N1CCOCC1
EC50: > 60 µM (inactive) | EC90: > 60 µM | CC50: > 60 µM

COC(=O)c1ccc(CSc2nnc3n(Cc4ccccc4OC)c(=O)c4ccccc4n23)o1
EC50: > 60 µM (inactive) | EC90: > 60 µM | CC50: > 60 µM

COc1ccccc1NC(=O)c1cc2ccccc2o1
EC50: > 60 µM (inactive) | EC90: > 60 µM | CC50: > 60 µM

COc1ccccc1CNC(=O)c1ccc(S(=O)(=O)N(C)C)cc1
EC50: > 60 µM (inactive) | EC90: > 60 µM | CC50: > 60 µM

O=c1[nH]c2ccccc2n1Cc1ccccc1
EC50: > 60 µM (inactive) | EC90: > 60 µM | CC50: > 60 µM

O=C1NCCCc2c1oc1ccc(O)cc21
EC50: > 60 µM (inactive) | EC90: > 60 µM | CC50: > 60 µM

CC1CC(=O)C2=C(C1)Nc1ccccc1N(C(=O)COc1ccccc1)C2c1ccco1 (stereo not drawn)
EC50: > 60 µM (inactive) | EC90: > 60 µM | CC50: > 60 µM

Cc1cccc(-n2ncc3c(Nc4ccc(F)cc4)ncnc32)c1
EC50: > 60 µM (inactive) | EC90: > 60 µM | CC50: > 60 µM

CCC(=O)N1CCn2c1nc1ccccc12
EC50: > 60 µM (inactive) | EC90: > 60 µM | CC50: > 60 µM

CCOC(=O)CN(C(=O)Cn1nnc2ccccc21)C(C(=O)NCCOC)c1ccccc1C (stereo not drawn)
EC50: > 60 µM (inactive) | EC90: > 60 µM | CC50: > 60 µM

OCC#CCSc1nnc(-c2ccncc2)o1
EC50: > 60 µM (inactive) | EC90: > 60 µM | CC50: > 60 µM

Cc1cc(C(=O)Nc2c(C)n(C)n(-c3ccccc3)c2=O)cs1
EC50: > 60 µM (inactive) | EC90: > 60 µM | CC50: > 60 µM

CC(=O)Nc1ccc(Nc2ncnc3c2cnn3-c2cccc(C)c2)cc1
EC50: > 60 µM (inactive) | EC90: > 60 µM | CC50: > 60 µM

COC(=O)Cc1c(C)nc2nc(-c3ccccc3)[nH]n2c1=O
EC50: > 60 µM (inactive) | EC90: > 60 µM | CC50: > 60 µM

Cc1nc2ccc(NC(=O)C3CCN(S(=O)(=O)c4cccs4)CC3)cc2s1
EC50: > 60 µM (inactive) | EC90: > 60 µM | CC50: > 60 µM

COc1ccc(NC(=O)C2CCCCN2S(=O)(=O)c2ccc(F)cc2)cc1 (stereo not drawn)
EC50: > 60 µM (inactive) | EC90: > 60 µM | CC50: > 60 µM

CN1c2ccsc2C(O)=C(C(=O)Nc2ccccc2)S1(=O)=O
EC50: > 60 µM (inactive) | EC90: > 60 µM | CC50: > 60 µM

COCc1cc(=O)n2c(-c3ccc(C)cc3)n[nH]c2n1
EC50: > 60 µM (inactive) | EC90: > 60 µM | CC50: > 60 µM

O=C(COc1ccccc1)N(Cc1ccco1)c1ccc(O)cc1
EC50: > 60 µM (inactive) | EC90: > 60 µM | CC50: > 60 µM

COc1ccccc1Cn1c(=O)c2ccccc2n2c(SCc3csc(C)n3)nnc12
EC50: > 60 µM (inactive) | EC90: > 60 µM | CC50: > 60 µM

CC1CCN(C(=O)Nc2cccc(NC(=O)N3CCC(C)CC3)c2)CC1
EC50: > 60 µM (inactive) | EC90: > 60 µM | CC50: > 60 µM

COc1ccc(NC(=O)c2cc3ccccc3o2)cc1
EC50: > 60 µM (inactive) | EC90: > 60 µM | CC50: > 60 µM

CCOC(=O)/C=C1\SCC(=O)N1CC(=O)Nc1ccc(C(C)C)cc1
EC50: > 60 µM (inactive) | EC90: > 60 µM | CC50: > 60 µM

CC(C)(C)NC(=O)c1cccc(NC(=O)c2ccc(NC(=O)c3ccco3)cc2)c1
EC50: > 60 µM (inactive) | EC90: > 60 µM | CC50: > 60 µM

O=C(CSc1ccc2nnc(-c3cccnc3)n2n1)NCc1ccco1
EC50: > 60 µM (inactive) | EC90: > 60 µM | CC50: > 60 µM

O=C(c1cc(-c2ccc(Cl)cc2)n(-c2ccc(Cl)cc2)n1)N1CCOCC1
EC50: > 60 µM (inactive) | EC90: > 60 µM | CC50: 4.34 µM

O=C(c1noc2c1CCc1ccccc1-2)N1CCOCC1
EC50: > 60 µM (inactive) | EC90: > 60 µM | CC50: > 60 µM

Cc1ccccc1Nc1ncnc2c1cnn2-c1ccccc1
EC50: > 60 µM (inactive) | EC90: > 60 µM | CC50: > 60 µM

O=C1NC2=C(CCc3ccccc32)C(c2ccc(Br)cc2)N1 (stereo not drawn)
EC50: 4.34 µM | EC90: 27.2 µM | CC50: > 60 µM

CC(=O)Nc1ccc(Nc2ncnc3c2cnn3-c2ccccc2)cc1
EC50: > 60 µM (inactive) | EC90: > 60 µM | CC50: > 60 µM

CCOC(=O)/C=C1\SCC(=O)N1CC(=O)NC(C)C
EC50: > 60 µM (inactive) | EC90: > 60 µM | CC50: > 60 µM

COC(=O)CSc1nnc(-c2ccncc2)o1
EC50: > 60 µM (inactive) | EC90: > 60 µM | CC50: > 60 µM

COC(=O)CSc1nnc([C@H](Cc2ccccc2)NC(=O)OC(C)(C)C)o1
EC50: > 60 µM (inactive) | EC90: > 60 µM | CC50: > 60 µM

Cc1ccc(C2NC(=O)NC3=C2CCc2ccccc23)cc1 (stereo not drawn)
EC50: 1.75 µM | EC90: > 60 µM | CC50: > 60 µM

CN1c2ccsc2C(O)=C(C(=S)Nc2ccccc2)S1(=O)=O
EC50: > 60 µM (inactive) | EC90: > 60 µM | CC50: > 60 µM

Cn1nc(C(=O)Nc2c(-c3ccccc3)nc3sccn23)c2ccccc2c1=O
EC50: > 60 µM (inactive) | EC90: > 60 µM | CC50: > 60 µM

COC(=O)Nc1ccc(S(=O)(=O)N2CCCCC2C(=O)NCc2ccco2)cc1 (stereo not drawn)
EC50: > 60 µM (inactive) | EC90: > 60 µM | CC50: > 60 µM

CC(C)(C)OC(=O)NCCc1nnc(SCc2ccc(Cl)cc2)o1
EC50: > 60 µM (inactive) | EC90: > 60 µM | CC50: > 60 µM

Cc1ccc(-c2nnc3ccc(SCC(=O)NCc4ccco4)nn23)cc1
EC50: > 60 µM (inactive) | EC90: > 60 µM | CC50: > 60 µM

Cc1ccc(SCC(=O)Nc2ccc(-c3nnc(-c4ccco4)o3)cc2)cc1
EC50: > 60 µM (inactive) | EC90: > 60 µM | CC50: > 60 µM

COc1ccc(-n2ncc3c(Nc4cccc(C)c4)ncnc32)cc1
EC50: > 60 µM (inactive) | EC90: > 60 µM | CC50: > 60 µM

COc1ccc(-c2csc(NC(=O)C3CCCCN3S(=O)(=O)c3ccccc3)n2)cc1 (stereo not drawn)
EC50: > 60 µM (inactive) | EC90: > 60 µM | CC50: > 60 µM

CCSc1nnc(-c2ccncc2)o1
EC50: > 60 µM (inactive) | EC90: > 60 µM | CC50: > 60 µM

Cc1cc(C(=O)NCc2ccccc2)c(=O)[nH]c1C
EC50: > 60 µM (inactive) | EC90: > 60 µM | CC50: > 60 µM

COc1ccccc1Cn1c(=O)c2ccccc2n2c(SCC(=O)N3CCCCC3)nnc12
EC50: > 60 µM (inactive) | EC90: > 60 µM | CC50: > 60 µM

COc1ccc(-c2nnc3ccc(SCC(=O)NCc4ccco4)nn23)cc1
EC50: > 60 µM (inactive) | EC90: > 60 µM | CC50: > 60 µM

O=C(Nc1ccccc1-c1ccccc1)c1ccc(NC(=O)c2ccco2)cc1
EC50: > 60 µM (inactive) | EC90: > 60 µM | CC50: > 60 µM

COc1ccc(-c2nc3nc(C)c(Cc4ccccc4)c(=O)n3[nH]2)cc1
EC50: > 60 µM (inactive) | EC90: > 60 µM | CC50: > 60 µM

CC(C)(C)c1ccc(OCCn2ccccc2=O)cc1
EC50: > 60 µM (inactive) | EC90: > 60 µM | CC50: 40.9 µM

O=C(CSc1ccc2nnc(-c3ccc(F)cc3)n2n1)NCc1ccco1
EC50: > 60 µM (inactive) | EC90: > 60 µM | CC50: > 60 µM
